Data as given in patent US12655150B2 (Cedilla Therapeutics, Inc., priority 2021, dated 2026).
Where a name gives a salt, the structure may show the parent alone.

The compounds below were run on NCI-H226 (assay: 72H TEAD Proliferation Assay (Cell Titer Glo 2.0)). Conditions: Homo sapiens, NCI-H226, 72 h, CTG 2.0, cell line not given (NCI-H226 responsive, NCI-H28 non-responsive).
Type: cell-based
Method in brief: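 Growth read-out is ATP luminescence (CellTiter-Glo 2.0) after 72 h compound exposure, corrected for no-CTG background and day-0 values, with GI50 from nonlinear regression. Sensitive line NCI-H226 (NF2-deficient); non-responsive NCI-H28 (NF2 wild type) distinguishes TEAD-driven from nonspecific growth inhibition.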

**Q.** How did the GI50 turn out when `C=CC(=O)NCc1cn2ccnc2c(-c2ccc(F)cc2)n1` [I-110, N-((8-(4-fluorophenyl)imidazo[1,2-a]pyrazin-6-yl)methyl)acrylamide] was run?
**A.** 1 to 5 µM

**Q.** How did the GI50 turn out when `C=CC(=O)NCc1cn2cccc2c(-c2ccc(C(C)(C)C)cc2)n1` [I-111, N-((1-(4-(tert-butyl)phenyl)pyrrolo[1,2-a]pyrazin-3-yl)methyl)acrylamide] was run?
**A.** ≤ 1 µM

**Q.** With `C=CC(=O)Nc1ccc2c(C(F)(F)F)cc(-c3ccc(C(C)(C)C)cc3)nc2c1` [I-112, N-(2-(4-(tert-Butyl)phenyl)-4-(trifluoromethyl)quinolin-7-yl)acrylamide] as the compound, how does the GI50 read?
**A.** 1 to 5 µM

**Q.** `O=C(O)c1ccc2c(c1)nc(C1CCC1)c1cccn12` [I-113, 4-Cyclobutylpyrrolo[1,2-a]quinoxaline-7-carboxylic acid] was tested. Which GI50 did it give?
**A.** > 10 µM

**Q.** With `C=CC(=O)Nc1ccc2c(c1)nc(-c1ccc(C(F)(F)F)cc1F)c1cccn12` [I-114, N-(4-(2-Fluoro-4-(trifluoromethyl)phenyl)pyrrolo[1,2-a]quinoxalin-7-yl) acrylamide] as the compound, how does the GI50 read?
**A.** ≤ 1 µM

**Q.** For `CC(C)(C)c1ccc(-c2nc3cc(C(=O)O)ccc3n3ccc(F)c23)cc1` [I-115, 4-(4-(tert-Butyl)phenyl)-3-fluoropyrrolo[1,2-a]quinoxaline-7-carboxylic acid], which GI50 is on record?
**A.** ≤ 1 µM

**Q.** `O=C(O)c1ccc2c(c1)nc(N1CCC3(CC1)CC3)c1cncn12` [I-116, 4-(6-Azaspiro[2.5]octan-6-yl)imidazo[1,5-a]quinoxaline-7-carboxylic acid] was tested. Which GI50 did it give?
**A.** > 10 µM

**Q.** With `CC(C)(C)c1ccc(-c2nc3cc(C(=O)O)ccc3n3nccc23)cc1` [I-117, 4-(4-(tert-Butyl)phenyl)pyrazolo[1,5-a]quinoxaline-7-carboxylic acid] as the compound, how does the GI50 read?
**A.** 1 to 5 µM

**Q.** `CC(C)(C)C#Cc1nc2cc(C(=O)O)ccc2n2cccc12` [I-118, 4-(3,3-Dimethylbut-1-yn-1-yl)pyrrolo[1,2-a]quinoxaline-7-carboxylic acid] was tested. Which GI50 did it give?
**A.** > 10 µM

**Q.** Which GI50 does the source give for `C=CC(=O)Nc1ccc2c(c1)nc(-c1ccc(C(C)(C)C)cc1)c1cccn12` [I-119, N-(4-(4-(tert-butyl)phenyl)pyrrolo[1,2-a]quinoxalin-7-yl)acrylamide] here?
**A.** ≤ 1 µM

**Q.** With `C=CC(=O)Nc1ccc2c(c1)nc(-c1ccc(C(F)(F)F)cc1)c1cccn12` [I-120, N-(4-(4-(trifluoromethyl)phenyl)pyrrolo[1,2-a]quinoxalin-7-yl)acrylamide] as the compound, how does the GI50 read?
**A.** ≤ 1 µM

**Q.** `O=C(O)c1ccc2c(c1)nc(NCCC(F)(F)C(F)(F)F)c1cccn12` [I-121, 4-((3,3,4,4,4-Pentafluorobutyl)amino)pyrrolo[1,2-a]quinoxaline-7-carboxylic acid] was tested. Which GI50 did it give?
**A.** 1 to 5 µM

**Q.** Which GI50 does the source give for `CC(C)(C)c1ccc(-c2nc3cc(NS(C)(=O)=O)ccc3n3cccc23)cc1` [I-122, N-(4-(4-(tert-butyl)phenyl)pyrrolo[1,2-a]quinoxalin-7-yl)methanesulfonamide] here?
**A.** 1 to 5 µM

**Q.** With `CC(C)(C)c1ccc(-c2nc3cc(C(=O)NS(C)(=O)=O)ccc3n3cccc23)cc1` [I-123, 4-(4-(tert-Butyl)phenyl)-N-(methylsulfonyl)pyrrolo[1,2-a]quinoxaline-7-carboxamide] as the compound, how does the GI50 read?
**A.** > 10 µM

**Q.** How did the GI50 turn out when `CC(C)(C)c1ccc(-c2nc3cc(C(=O)NS(=O)(=O)C4CC4)ccc3n3cccc23)cc1` [I-124, 4-(4-(tert-Butyl)phenyl)-N-(cyclopropylsulfonyl)pyrrolo[1,2-a]quinoxaline-7-carboxamide] was run?
**A.** > 10 µM

**Q.** Which GI50 does the source give for `CN(CCCC(F)(F)F)c1nc2cc(C(=O)O)ccc2n2cccc12` [I-125, 4-(Methyl(4,4,4-trifluorobutyl)amino)pyrrolo[1,2-a]quinoxaline-7-carboxylic acid] here?
**A.** > 10 µM

**Q.** For `CN(CCC(F)(F)F)c1nc2cc(C(=O)O)ccc2n2cccc12` [I-126, 4-(Methyl(3,3,3-trifluoropropyl)amino)pyrrolo[1,2-a]quinoxaline-7-carboxylic acid], which GI50 is on record?
**A.** > 10 µM

**Q.** How did the GI50 turn out when `O=C(O)c1ccc2c(c1)nc(N1CC3C(C1)C3C(F)(F)F)c1cccn12` (stereo not shown) [I-128, 4-(6-(Trifluoromethyl)-3-azabicyclo[3.1.0]hexan-3-yl)pyrrolo[1,2-a]quinoxaline-7-carboxylic acid hydrochloride] was run?
**A.** 1 to 5 µM

**Q.** With `Cc1cnc(-c2nc3cc(C(=O)O)ccc3n3cccc23)nc1` [I-129, 4-(5-Methylpyrimidin-2-yl)pyrrolo[1,2-a]quinoxaline-7-carboxylic acid] as the compound, how does the GI50 read?
**A.** 1 to 5 µM

**Q.** For `O=C(O)c1ccc2c(c1)nc(OCc1ccc(C(F)(F)F)cc1)c1cccn12` [I-130, 4-((4-(Trifluoromethyl)benzyl)oxy)pyrrolo[1,2-a]quinoxaline-7-carboxylic acid], which GI50 is on record?
**A.** > 10 µM

**Q.** With `O=C(O)c1ccc2c(c1)nc(OCc1cccc(C(F)(F)F)c1)c1cccn12` [I-131, 4-((3-(Trifluoromethyl)benzyl)oxy)pyrrolo[1,2-a]quinoxaline-7-carboxylic acid] as the compound, how does the GI50 read?
**A.** > 10 µM

**Q.** How did the GI50 turn out when `O=C(O)c1ccc2c(c1)nc(-c1ccc(C(F)(F)F)cn1)c1cccn12` [I-132, 4-(5-(Trifluoromethyl)pyridin-2-yl)pyrrolo[1,2-a]quinoxaline-7-carboxylic acid] was run?
**A.** ≤ 1 µM

**Q.** Which GI50 does the source give for `C=CC(=O)Nc1ccc2c(c1)nc(-c1ccc(C(F)(F)F)cc1F)c1nccn12` [I-133, N-(4-(2-Fluoro-4-(trifluoromethyl)phenyl)imidazo[1,2-a]quinoxalin-7-yl)acrylamide] here?
**A.** ≤ 1 µM

**Q.** `CCC(=O)Nc1ccc2c(c1)nc(-c1ccc(C(C)(C)C)cc1)c1nccn12` [I-134, N-(4-(4-(tert-butyl)phenyl)imidazo[1,2-a]quinoxalin-7-yl)propionamide] was tested. Which GI50 did it give?
**A.** 1 to 5 µM

**Q.** `CC(=O)Nc1ccc2c(c1)nc(-c1ccc(C(C)(C)C)cc1)c1nccn12` [I-135, N-(4-(4-(tert-butyl)phenyl)imidazo[1,2-a]quinoxalin-7-yl)acetamide] was tested. Which GI50 did it give?
**A.** 1 to 5 µM

**Q.** `C=CC(=O)N1CCc2c(cccc2-c2ccc(C(F)(F)F)cc2)C1` [I-136, 1-(5-(4-(Trifluoromethyl)phenyl)-3,4-dihydroisoquinolin-2(1H)-yl)prop-2-en-1-one] was tested. Which GI50 did it give?
**A.** ≤ 1 µM

**Q.** With `COCC(C)CC(=O)N1CCc2c(cccc2-c2ccc(C(F)(F)F)cc2)C1` (stereo not shown) [I-137, 4-Methoxy-3-methyl-1-(5-(4-(trifluoromethyl)phenyl)-3,4-dihydroisoquinolin-2(1H)-yl)butan-1-one] as the compound, how does the GI50 read?
**A.** 1 to 5 µM

**Q.** How did the GI50 turn out when `O=C(O)c1cnc2c(c1)nc(N1CCC3(CC1)CC3)c1cccn12` [I-138, 6-(6-Azaspiro[2.5]octan-6-yl)pyrido[3,2-e]pyrrolo[1,2-a]pyrazine-3-carboxylic acid] was run?
**A.** 1 to 5 µM

**Q.** `CC(C)(C)c1ccc(-c2nc3cc(C(=O)O)cnc3n3cccc23)cc1` [I-139, 6-(4-(tert-Butyl)phenyl)pyrido[3,2-e]pyrrolo[1,2-a]pyrazine-3-carboxylic acid] was tested. Which GI50 did it give?
**A.** ≤ 1 µM

**Q.** With `C=CC(=O)NCc1cn2ccnc2c(-c2ccc(C(C)(C)C)cc2)n1` [I-140, N-((8-(4-(tert-butyl)phenyl)imidazo[1,2-a]pyrazin-6-yl)methyl)acrylamide] as the compound, how does the GI50 read?
**A.** ≤ 1 µM

**Q.** For `C=CS(=O)(=O)NCc1cn2ccnc2c(-c2ccc(C(C)(C)C)cc2)n1` [I-141, N-((8-(4-(tert-Butyl)phenyl)imidazo[1,2-a]pyrazin-6-yl)methyl)ethenesulfonamide], which GI50 is on record?
**A.** 1 to 5 µM

**Q.** With `C=CC(=O)NC(C)c1cn2ccnc2c(-c2ccc(C(C)(C)C)cc2)n1` (stereo not shown) [I-142, N-(1-(8-(4-(tert-butyl)phenyl)imidazo[1,2-a]pyrazin-6-yl)ethyl)acrylamide] as the compound, how does the GI50 read?
**A.** ≤ 1 µM

**Q.** `CNC(=O)c1cn2ccnc2c(-c2ccc(C(C)(C)C)cc2)n1` [I-143, 8-(4-(tert-Butyl)phenyl)-N-methylimidazo[1,2-a]pyrazine-6-carboxamide] was tested. Which GI50 did it give?
**A.** > 10 µM

**Q.** With `CC(C)(C)c1ccc(-c2ncn3cc(C(=O)O)ccc23)cc1` [I-144, 1-(4-(tert-Butyl)phenyl)imidazo[1,5-a]pyridine-6-carboxylic acid] as the compound, how does the GI50 read?
**A.** > 10 µM

**Q.** For `CC(C)(C)c1ccc(-c2ncc3ccc(C(=O)O)cn23)cc1` [I-145, 3-(4-(tert-Butyl)phenyl)imidazo[1,5-a]pyridine-6-carboxylic acid], which GI50 is on record?
**A.** > 10 µM

**Q.** How did the GI50 turn out when `C=CC(=O)Nc1cn2ccnc2c(-c2ccc(C(C)(C)C)cc2)n1` [I-146, N-(8-(4-(tert-Butyl)phenyl)imidazo[1,2-a]pyrazin-6-yl)acrylamide] was run?
**A.** 1 to 5 µM

**Q.** With `CC(C)(C)c1ccc(-c2nc(C(=O)O)cn3ccnc23)cc1` [I-147, 8-(4-(tert-Butyl)phenyl)imidazo[1,2-a]pyrazine-6-carboxylic acid] as the compound, how does the GI50 read?
**A.** > 10 µM

**Q.** With `CC(C)(C)c1ccc(-c2nc(O)cn3ccnc23)cc1` [I-148, 8-(4-(tert-Butyl)phenyl)imidazo[1,2-a]pyrazin-6-ol] as the compound, how does the GI50 read?
**A.** > 10 µM

**Q.** For `COc1cn2ccnc2c(-c2ccc(C(C)(C)C)cc2)n1` [I-149, 8-(4-(tert-Butyl)phenyl)-6-methoxyimidazo[1,2-a]pyrazine], which GI50 is on record?
**A.** > 10 µM

**Q.** Which GI50 does the source give for `COc1cnc(-c2ccc(C(C)(C)C)cc2)c2nccn12` [I-150, 8-(4-(tert-Butyl)phenyl)-5-methoxyimidazo[1,2-a]pyrazine] here?
**A.** > 10 µM

**Q.** `COC(=O)/C=C/c1cn2ccnc2c(-c2ccc(C(C)(C)C)cc2)n1` [I-151, Methyl (E)-3-(8-(4-(tert-butyl)phenyl)imidazo[1,2-a]pyrazin-6-yl)acrylate] was tested. Which GI50 did it give?
**A.** > 10 µM

**Q.** With `CC(C)(C)c1ccc(-c2nc(/C=C/C(=O)O)cn3ccnc23)cc1` [I-152, (E)-3-(8-(4-(tert-butyl)phenyl)imidazo[1,2-a]pyrazin-6-yl)acrylic acid] as the compound, how does the GI50 read?
**A.** 1 to 5 µM

**Q.** Which GI50 does the source give for `CC(C)(C)c1ccc(-c2nc(CCC(=O)O)cn3ccnc23)cc1` [I-153, 3-(8-(4-(tert-Butyl)phenyl)imidazo[1,2-a]pyrazin-6-yl)propanoic acid] here?
**A.** > 10 µM

**Q.** Which GI50 does the source give for `CC(C)(C)c1ccc(-c2nc(/C=C/C#N)cn3ccnc23)cc1` [I-154, (E)-3-(8-(4-(tert-Butyl)phenyl)imidazo[1,2-a]pyrazin-6-yl)acrylonitrile] here?
**A.** 1 to 5 µM

**Q.** For `CC(C)(C)c1ccc(-c2nc(/C=C/c3nnn[nH]3)cn3ccnc23)cc1` [I-155, (E)-6-(2-(1H-tetrazol-5-yl)vinyl)-8-(4-(tert-butyl)phenyl)imidazo[1,2-a]pyrazine], which GI50 is on record?
**A.** > 10 µM

**Q.** How did the GI50 turn out when `CC(C)(C)c1ccc(-c2nc(CCc3nnn[nH]3)cn3ccnc23)cc1` [I-156, 6-(2-(1H-tetrazol-5-yl)ethyl)-8-(4-(tert-butyl)phenyl)imidazo[1,2-a]pyrazine] was run?
**A.** > 10 µM
